Earlier results, collected in patent publication US20130023661A1, “FLUORINATING REAGENTS WITH (PERFLUORALKYL) FLUOROPHOSPHATE ANION” (MERCK PATENT GESELLSCHAFT MIT BESCHRANKTER HAFTUNG, priority 2010, published 2013).

Conditions: stored in a cool, dry place

Q: With F[N+]12CC[N+](CCl)(CC1)CC2 [F-TEDA-BF4, 1-chloromethyl-4-fluorodiazoniabicyclo[2.2.2]octane bistetrafluoroborate] as the compound, how does the guaranteed storage stability read?
A: The guaranteed storage stability was “not more than one year”.
